Reference: patent publication US20260199204A1, “ANTIMICROBIAL COMBINATIONS” (Clariant International Ltd, priority 2022, published 2026)
Converted amounts (≈) assume the structure as drawn. Like-named read-outs stand apart in the source and are kept apart here.

Tests used:
Assay type in all cases: cell-based
[1] = test system: all test organisms (P.a., S.a., E.c., C.a., A.b.); assay: Challenge test in O/W-cream gel, overall result; parameters: key to Challenge test criteria for all test organisms: An A-criteria is related to an excellent protection of a formulation; B-criteria is needed to show sufficient protection but additional risk eliminating measures related to packaging and raw material quality need to be applied; With an F-criteria for any of the organism tested the whole challenge test is failed and the preservation/protection of the formulation is not sufficient; settings: pH 7
Text: (§1) Following examples show challenge test results that were done according to EUROPEAN PHARMACOPOEIA 10TH EDITION. Chapter 5.1.3. As representative microorganisms the following test germs were used: Pseudomonas aeruginosa (gram-negative organism, short “P.a.”), Staphylococcus aureus (gram-positive organism, short “S.a.”), Escherichia coli (gram negative organism, short “E.c.”), Candida albicans (yeast, short “C.a.”) and Aspergillus brasiliensis (mold, short “A.b.”). The A criteria express the recommended efficacy to be achieved. In justified cases where the A criteria cannot be attained, for example for reasons of an increased risk of adverse reactions, the B criteria must be satisfied. An A-criteria is related to an excellent protection of a formulation, B-criteria is needed to show sufficient protection but additional risk eliminating measures related to packaging and raw material quality need to be applied. With an F-criteria for any of the organism tested the whole challenge test is failed and the preservation/protection of the formulation is not sufficient. As a reference an unpreserved sample of the respective formulation was tested as well. As a test system a difficult to preserve formulation was used: Leave-on: O/W-Cream Gel [table]

[2] = test system: Staphylococcus aureus (S.a.); assay: Challenge test (European Pharmacopoeia 10th Edition, 5.1.3) in O/W-cream gel; parameters: key: An A-criteria is related to an excellent protection of a formulation; B-criteria is needed to show sufficient protection but additional risk eliminating measures related to packaging and raw material quality need to be applied; With an F-criteria for any of the organism tested the whole challenge test is failed and the preservation/protection of the formulation is not sufficient; settings: pH 7
Text: as §1

[3] = test system: Pseudomonas aeruginosa (P.a.); assay: as above; parameters: key: An A-criteria is related to an excellent protection of a formulation; B-criteria is needed to show sufficient protection but additional risk eliminating measures related to packaging and raw material quality need to be applied; With an F-criteria for any of the organism tested the whole challenge test is failed and the preservation/protection of the formulation is not sufficient; settings: pH 7
Text: as §1

[4] = test system: Aspergillus brasiliensis (A.b.); assay: as above; parameters: key: An A-criteria is related to an excellent protection of a formulation; B-criteria is needed to show sufficient protection but additional risk eliminating measures related to packaging and raw material quality need to be applied; With an F-criteria for any of the organism tested the whole challenge test is failed and the preservation/protection of the formulation is not sufficient; settings: pH 7
Text: as §1

[5] = test system: Escherichia coli (E.c.); assay: as above; parameters: key: An A-criteria is related to an excellent protection of a formulation; B-criteria is needed to show sufficient protection but additional risk eliminating measures related to packaging and raw material quality need to be applied; With an F-criteria for any of the organism tested the whole challenge test is failed and the preservation/protection of the formulation is not sufficient
Text: as §1

[6] = test system: Candida albicans (C.a.); assay: as above; parameters: key: An A-criteria is related to an excellent protection of a formulation; B-criteria is needed to show sufficient protection but additional risk eliminating measures related to packaging and raw material quality need to be applied; With an F-criteria for any of the organism tested the whole challenge test is failed and the preservation/protection of the formulation is not sufficient; settings: pH 7
Text: as §1

[7] = test system: Saccharomyces cerevisiae DSM 70449; assay: MIC agar dilution test, yeast; settings: Saccharomyces cerevisiae (Y) DSM 70449, Sabouraud-4% Dextrose-Agar, pH 5.6
Experimental: (§2) The antimicrobial properties of Velsan Flex, 4-Hydroxyacetophenone and a combination of both against bacteria, yeast and mold were investigated: For testing the inhibition of bacteria, Velsan Flex, 4-Hydroxyacetophenone or a combination of both was diluted in butylpolyglycol and added in different concentrations to liquid Caso-Agar at 50° C. and was buffered to pH 7 (+/−0.2). For testing the inhibition of yeast and mold, Velsan Flex, 4-Hydroxyacetophenone or a combination of both was diluted in butylpolyglycol and added in different concentrations to liquid Sabouraud-4% Dextrose-Agar at 50° C. and was buffered to pH 5.6 (+/−0.2). Each of the solutions was poured into a petri-dish and inoculated with the same amount of bacteria, yeast or mold respectively. The minimum inhibitory concentration (MIC) is the lowest concentration of the respective composition that inhibits the growth of the respective microorganism where the next lowest dilution fails to inhibit the growth of said microorganism.
(§3) In a similar experiment as described above the antimicrobial properties of Velsan SC, 4-Hydroxyacetophenone and a combination of both against bacteria, yeast and mold were investigated.

[8] = test system: Candida albicans DSM 1386; assay: MIC agar dilution test, yeast; settings: Candida albicans (Y) DSM 1386, Sabouraud-4% Dextrose-Agar, pH 5.6
Experimental: as §2, §3

[9] = test system: Burkholderia cepacia DSM 7288; assay: MIC agar dilution test, bacteria; settings: Burkholderia cepacia (B) DSM 7288, Caso-Agar, pH 7
[10] = test system: Klebsiella pneumoniae DSM 786; assay: MIC agar dilution test, bacteria; settings: Klebsiella pneumoniae (B) DSM 786, Caso-Agar, pH 7
Experimental: as §2, §3

[11] = test system: Staphylococcus aureus DSM 799; assay: MIC agar dilution test, bacteria; settings: Staphylococcus aureus (B) DSM 799, Caso-Agar, pH 7
Experimental: as §2, §3

[12] = test system: Candida parapsilosis DSM 5784; assay: MIC agar dilution test, yeast; settings: Lodderomyces parapsilosis, DSM5784; Candida parapsilosis (Y) DSM 5784; Sabouraud-4% Dextrose-Agar, pH 5.6
Experimental: as §2, with “microorganism. The experiments were carried out in scientifically fair conditions so that a proper comparison could be made and conclusions drawn.” for “microorganism.”

[13] = test system: Aspergillus brasiliensis DSM 1988; assay: MIC agar dilution test, mold; settings: Aspergillus brasiliensis (M) DSM 1988, Sabouraud-4% Dextrose-Agar, pH 5.6
Experimental: as §2, §3

[14] = test system: Aspergillus terreus IMI 45543; assay: MIC agar dilution test, mold; settings: Aspergillus terreus (M) IMI 45543, Sabouraud-4% Dextrose-Agar, pH 5.6
Experimental: as §2, §3

[15] = test system: Fusarium solani IMI 322444; assay: MIC agar dilution test, mold; settings: Fusarium solani (M) IMI 322444, Sabouraud-4% Dextrose-Agar, pH 5.6
Experimental: as §2, §3

[16] = test system: Penicillium minioluteum/Penicillium purpurogenum ATCC 52427; assay: MIC agar dilution test, mold; settings: Penicillium minioluteum/Penicillium purpurogenum (M) ATCC 52427, Sabouraud-4% Dextrose-Agar, pH 5.6
Experimental: as §2, §3

CC(=O)c1ccc(O)cc1 [4-Hydroxyacetophenone]
Challenge test criteria for all test organisms ([1]; 0.25% as single preservative (entry 5)): F | Ability to preserve the formulation ([1]; use level 0.5%, alone (entry 6)): not sufficient to preserve the formulation | Challenge test result S.a. ([2]; concentration 0.25%): F | Challenge test result S.a. ([2]; concentration 0.5%): B | Challenge test result P.a. ([3]; concentration 0.25%): F | Challenge test result P.a. ([3]; concentration 0.5%): A | Challenge test result A.b. ([4]; concentration 0.25%): F | Challenge test result A.b. ([4]; concentration 0.5%): A | Challenge test result E.c. ([5]; concentration 0.25%, pH 7): F | Challenge test result E.c. ([5]; concentration 0.5%, pH 7): F | Challenge test result E.c. ([5]; concentration 0.5%, pH 7, listed as Hydroxyacetophenone): fails | Challenge test result C.a. ([6]; concentration 0.25%): F | Challenge test result C.a. ([6]; concentration 0.5%): A

CC(=O)c1ccc(O)cc1 [10% Hydroxyacetophenone solution, 4-Hydroxyacetophenone]
MIC ([7]; DSM70449, read-out: MIC): 8000 µg/mL | MIC ([8]; DSM1386, read-out: MIC): 10000 µg/mL | MIC ([9]; DSM7288, read-out: MIC): 4000 µg/mL (≈ 29.4 mM) | MIC ([10]; DSM786, read-out: MIC): 8000 µg/mL | MIC ([11]; DSM799, read-out: MIC): > 10000 µg/mL | MIC [12]: > 10000 µg/mL | MIC ([13]; DSM1988, read-out: MIC): 8000 µg/mL | MIC ([14]; IMI45543, read-out: MIC): 6000 µg/mL | MIC ([15]; IMI322444, read-out: MIC): 3000 µg/mL | MIC ([16]; Talaromyces minioluteus, ATCC52427, read-out: MIC): 6000 µg/mL

Sorbitan caprylate [90% Velsan SC solution]
MIC [7]: 3000 ppm | MIC [8]: 1500 ppm | MIC [9]: 6000 ppm | MIC [10]: 2000 ppm | MIC [11]: 750 ppm | MIC [13]: 4000 ppm | MIC [14]: 1500 ppm | MIC [15]: 1500 ppm | MIC [16]: 1500 ppm

Sorbitan caprylate [Velsan SC]
Ability to preserve the formulation ([1]; alone, entries 8-11 (0.5%; Velsan CGE 0.5% and 0.25%)): not sufficient to preserve the formulation | Challenge test result S.a. ([2]; concentration 0.5%): B | Challenge test result P.a. ([3]; concentration 0.5%): F | Challenge test result A.b. ([4]; concentration 0.5%): B | Challenge test result E.c. ([5]; concentration 0.5%, pH 7): F | Challenge test result C.a. ([6]; concentration 0.5%): F
